Measurements reported in US11040947B2, “Substituted quinazolines as matrix metalloproteinase-9 hemopexin domain inhibitors” (The Research Foundation for The State University of New York, priority 2017, dated 2021).

Experiments:
[1] = system: COS-1 cells stably expressing vector control or proMMP-9; test: acute cytotoxicity in COS-1 cells; type: cell-based; settings: 50 μM, 24 hours, non-statistically significant
Protocol: Compound 3c was evaluated for acute cytotoxicity. COS-1 cells stably expressing either vector control or proMMP-9 cDNA were treated with 50 μM 3c for 24 hours. As negative and positive controls, cells were treated with DMSO alone or 100 nM staurosporine (STS), an apoptosis inducer, respectively. […] A non-statistically significant 8% decrease in cell growth occurred after treatment with 50 μM of compound 3c. These experiments were repeated in endogenous MMP-9 expressing HT1080 fibrosarcoma cells, which were analyzed for chronic toxicity (cells were re-treated every three days for a total of nine days).

[2] = system: EGFR-CD44 and EGFR-β1 integrin interaction; test: EGFR co-IP assay with CD44 and β1 integrin in HT1080 cells; type: cell-based, Human; settings: 50 μM
Protocol: HT1080 cells were treated with 50 μM 3c, 1a, 1f or DMSO alone. Cell lysates were collected and analyzed by a co-IP assay in which endogenous EGFR was captured with an anti-EGFR antibody and served as an input control. CD44 and β1 integrin were individually probed on the immunoblot.

[3] = molecular target: T1, proMMP-9 (Homo sapiens, UniProt P14780); test: saturated transfer difference (STD) NMR, proMMP-9; type: binding; settings: saturation of 1.12 ppm resonance
T1 construct: Purified recombinant MMP-9 (50 nmol/L) or MMP-9/MMP-2PEX (50 nmol/L) was diluted in buffer
Protocol: As an additional test of binding selectivity, saturated transfer difference (STD) NMR was performed with purified recombinant proMMP-2 and proMMP-9 protein. ProMMP-2 and proMMP-9 are highly similar in structure and function, belonging to the same subfamily of MMPs known as the type IV collagenases and/or gelatinases. Thus proMMP-2 constitutes the best control for testing the selectivity of the PEX-9 inhibitor. Selective saturation of the 1.12 ppm resonance (proMMP-2 and proMMP-9) was used for STD NMR spectra. […] Thus, binding specificity is maintained upon increasing binding affinity.

[4] = system: HT1080 cells; test: chorioallantoic membrane (CAM) assay, angiogenesis; type: in vivo, chicken embryo; settings: 100 μM stock solution (final estimated 0.5 μM), 4-day incubation, vs DMSO and 1f
Protocol: A CAM assay was carried out to evaluate angiogenic and invasive potential of HT1080 cells after treatment with 3c. […] After a 4-day incubation, neovascularization was imaged and quantified.

[5] = molecular target: T2, MMP-9 association with CD44 and EGFR (Homo sapiens, UniProt P14780); test: co-immunoprecipitation of endogenous CD44 and EGFR with MMP-9 in HT1080 cells; type: cell-based; settings: 50 μM overnight
T2 construct: expressed in transfected cells; host or cells: HT1080 human fibrosarcoma cells (MMP-9 transfected; CD44 and EGFR endogenous)
T2 sequence (P14780 94-707): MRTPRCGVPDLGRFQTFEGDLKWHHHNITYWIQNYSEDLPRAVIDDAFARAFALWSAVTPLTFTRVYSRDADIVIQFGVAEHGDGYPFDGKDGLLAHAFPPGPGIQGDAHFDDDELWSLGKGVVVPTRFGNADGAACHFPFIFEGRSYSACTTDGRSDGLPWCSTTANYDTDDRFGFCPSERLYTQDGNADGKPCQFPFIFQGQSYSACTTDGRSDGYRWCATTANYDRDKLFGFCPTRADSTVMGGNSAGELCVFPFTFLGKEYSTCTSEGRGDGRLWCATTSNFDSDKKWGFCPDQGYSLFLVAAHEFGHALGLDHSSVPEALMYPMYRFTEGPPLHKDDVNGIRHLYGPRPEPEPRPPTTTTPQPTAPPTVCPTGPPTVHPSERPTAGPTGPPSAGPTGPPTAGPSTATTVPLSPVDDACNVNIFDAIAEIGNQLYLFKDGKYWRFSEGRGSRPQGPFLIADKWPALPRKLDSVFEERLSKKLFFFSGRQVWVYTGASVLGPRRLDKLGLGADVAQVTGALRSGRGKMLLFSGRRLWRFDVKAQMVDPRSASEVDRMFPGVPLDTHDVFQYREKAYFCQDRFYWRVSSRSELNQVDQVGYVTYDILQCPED

T1 sequence (P14780 20-707 limits assumed): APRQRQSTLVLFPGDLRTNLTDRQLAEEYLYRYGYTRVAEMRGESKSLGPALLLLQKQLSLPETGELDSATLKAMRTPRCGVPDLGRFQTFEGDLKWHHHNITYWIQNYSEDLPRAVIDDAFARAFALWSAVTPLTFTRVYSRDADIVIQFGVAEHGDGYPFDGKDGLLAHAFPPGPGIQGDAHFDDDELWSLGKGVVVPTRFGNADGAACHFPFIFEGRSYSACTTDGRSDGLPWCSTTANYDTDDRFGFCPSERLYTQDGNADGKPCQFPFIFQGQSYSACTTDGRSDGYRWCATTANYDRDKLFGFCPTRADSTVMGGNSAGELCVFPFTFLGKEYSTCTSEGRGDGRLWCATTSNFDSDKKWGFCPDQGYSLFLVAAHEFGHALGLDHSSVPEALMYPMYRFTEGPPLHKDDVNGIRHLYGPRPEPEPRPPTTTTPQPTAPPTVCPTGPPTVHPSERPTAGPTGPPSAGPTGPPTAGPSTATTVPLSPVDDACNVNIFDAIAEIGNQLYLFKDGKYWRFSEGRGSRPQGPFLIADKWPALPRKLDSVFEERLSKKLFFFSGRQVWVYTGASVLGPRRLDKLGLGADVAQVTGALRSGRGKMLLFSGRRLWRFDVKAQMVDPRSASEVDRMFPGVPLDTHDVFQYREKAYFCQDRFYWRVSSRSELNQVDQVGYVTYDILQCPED

O=C(CCCSc1nc2c(c(=O)[nH]1)CCCC2)Nc1ccc(F)cc1 [Compound 3c, N-(4-Fluorophenyl)-4-(4-oxo-3,4,5,6,7,8-hexahydroquinazolin-2-ylthio)butanamide]
decrease in cell growth [1]: 8% | interaction between EGFR-CD44 and EGFR-β1 integrin [2]: Decreased interaction between EGFR-CD44 and EGFR-β1 integrin | STD NMR peaks in presence of proMMP-9 [3]: STD peaks were observed | angiogenic potential of HT1080 cells (neovascularization) [4]: significantly reduced the angiogenic potential of HT1080 cells | endogenous CD44 and EGFR co-immunoprecipitation [5]: reduced endogenous CD44 and EGFR co-immunoprecipitation
